Publication PMC8419995, “In vitro and in vivo efficacy of thiacloprid against Echinococcus multilocularis” (Parasites & Vectors, 2021)
Read-outs that look alike come from different tables or passages of the source.

Columns and labels:
[1] = system: Human foreskin fibroblasts (HFF); experiment: alamarBlue cytotoxicity assay, HFF; type: cell-based; details: Fibroblast, 120 h, 5 days
Protocol: An alamarBlue assay was used to assess the toxicity of thiacloprid to confluent and pre-confluent mammalian cells in vitro [29]. Human foreskin fibroblasts (HFF, Procell) and rat hepatoma cells (RH, Procell) were seeded into 96-well cell culture plates in DMEM supplemented with 10% FBS and 1% penicillin–streptomycin at 37 °C and 5% CO2. For detecting the growth inhibitory effects of confluent cells, HFF and RH cells were seeded at 10,000 cells per well and 50,000 cells per well, respectively. After overnight culture, thiacloprid or PZQ was added and diluted in serial concentrations (0, 0.6, 1.2, 2.5, 5, 10, 20, 40, 80 and 160 μM). For detecting growth inhibitory effects on proliferating cells, cells were seeded at 1000 (HFF) and 5000 (RH) cells per well. Thiacloprid was added after 5 h of cell attachment. To measure the viability of the cells after treatment for 5 days, the alamarBlue assay was employed and viability calculated as described previously.

[2] = system: collagen I and III, MMP1, MMP3, MMP9, MMP13; experiment: Collagen and MMP expression in the host-lesion microenvironment (TEM, Sirius red, qPCR, western blot); type: in vivo; details: infected BALB/c mice, 6 weeks oral treatment
Protocol: The metacestodes were fixed with 4% paraformaldehyde and embedded in paraffin to make sections with a thickness of […]. The sections were dewaxed with water, stained with Picrosirius red for 10 min, rinsed and dehydrated with anhydrous ethanol, and sealed with neutral balsam after the xylene was transparent. Each section of 400× visual field image was randomly collected. The ratio of the area of all images collected to the area of the visual field was measured using the ImageJ analysis system, and the percentage of collagen fibre was calculated.
The variations in the microstructure of the protoscoleces or metacestodes were observed under an electron microscope. […] They were washed twice in PBS and then fixed for 3 h with 2.5% glutaraldehyde (pH = 7.2); next, they underwent 2 h post-fixation in 2% OsO4 (SPI-CHEM, West Chester, PA, USA). Subsequently, the samples were washed in double-distilled water and treated with 1% uranyl acetate for 25 min. After the samples were washed again in double-distilled water, dehydration was conducted in ethanol at continuous gradients (30–50–70–80–90–95–100%) over a period of 10 min. For SEM analysis, the dehydrated samples were dipped into hexamethyldisiloxane and then air-dried in a fume hood. The sample was observed under a Hitachi SU8100 scanning electron microscope (Tokyo, Japan) after gold spraying. For TEM analysis, the dehydrated samples passed through a dehydrating agent, and an epoxy resin (SPI-CHEM) permeated and polymerized at 60 °C overnight. A 50-nm ultra-thin section was prepared and then loaded on a 300-mesh copper grid. It was stained with uranyl acetate and lead citrate (SPI-CHEM). The sample was observed under a Hitachi HT7700 transmission electron microscope. To reduce the bias, electron microscopy was observed by professionals in the case of an unknown group.
Total RNA was extracted with TRIzol Reagent (Thermo Fisher Scientific, Waltham, MA, USA) according to the manufacturer’s instructions. The purity and concentrations of RNA were quantified using NanoDrop 2000 absorbance measurements at 260/280 nm. Total RNA was converted into cDNA sequences using the FastKing gDNA Dispelling RT SuperMix Kit (TIANGEN Biotech), and RT-qPCR was performed using the RealUniversal Color PreMix Kit (TIANGEN Biotech) on an ABI QuantStudio 5 system (Applied Biosystems, Waltham, MA, USA). The specific primers are shown in Additional file 4: Table S1. The PCR cycling conditions were as follows: pre-denaturation at 95 °C for 15 min followed by 40 cycles at 95 °C for 10 s and 60 °C for 34 s. The relative mRNA expression levels were quantified using the 2^−ΔΔCT method. RPS18 served as an internal control.
A total protein extraction kit (Solarbio) was used to extract cell or tissue total protein. The protein concentration was determined by the protein quantitative assay kit (Thermo Fisher Scientific). Then, electrophoresis was performed with 20–50 μg of protein sample. The protein was separated by sodium dodecyl sulfate polyacrylamide gel electrophoresis (SDS-PAGE) and transferred to a 0.22 μm PVDF membrane (Merck Millipore, Darmstadt, Germany). The PVDF membrane was blocked with 5% of nonfat powdered milk in Tris-buffered saline Tween 20 (TBST) for 1 h at room temperature. The membrane incubation with primary antibodies was performed at 4 °C overnight. The antibody information is listed in Additional file 5: Table S2. The membrane was washed with TBST and incubated with HRP-labeled secondary antibodies (1:5000, Abclonal, Wuhan, China) for 1 h at room temperature. Blotted membranes were visualized using enhanced chemiluminescence reagents (Thermo Fisher Scientific). Protein expression was depicted as the intensity of each protein relative to that of β-actin using ImageJ software.

[3] = system: IL-2, IL-4, IL-10 and IgE; experiment: ELISA of cytokines and IgE in infected mice; type: in vivo; details: infected BALB/c mice, 6 weeks oral treatment
Protocol: In vitro-grown metacestode vesicles were pressed through a 500 µm mesh and washed three times with sterile PBS. The parasite tissue was then taken up in an equal volume of sterile PBS. Each mouse was intraperitoneally injected with 200 μl suspension. Seven mice were injected with 200 μl PBS as the control group. Twenty-eight infected mice were randomly distributed into four groups (7 mice/group): the untreated group was not administered any drug; the ABZ group was treated with ABZ orally (100 mg/kg/day); and the Thia15 group and Thia30 group received thiacloprid orally (15 mg/kg/day and 30 mg/kg/day). Treatments of mice started 2 weeks post-infection, and treatments were administered daily for 6 weeks. After 6 weeks of treatment, whole blood via the orbital sinus was collected from mice and the animals were euthanized by CO2. Blood samples were incubated at 37 °C for 1 h and centrifuged at 3500 rpm for 10 min at 4 °C. The serum was harvested and stored at –20 °C for IL-2, IL-4, IL-10 and IgE detection. All metacestode tissues were collected, and the total wet weight of metacestodes per mice was determined. Furthermore, the content of cytokines in microcyst fluid was detected by enzyme-linked immunosorbent assay (ELISA). Several metacestode tissue specimens were processed for transmission electron microscopy (TEM) and histopathological experiments.
ELISA was employed to detect serum IL-2, IL-4, IL-10 and IgE following the manufacturer's instructions. Mouse collagen I and collagen III ELISA kits were used to measure the levels of collagen I and collagen III in the cell culture supernatant after intervention with thiacloprid. All ELISA kits were provided by Elabscience Biotechnology Co., Ltd., Wuhan, China. The OD value at 450 nm was read with a Tecan Infinite M200 PRO enzyme reader (Männedorf, Switzerland), and the concentration was calculated according to the standard curve.

N#C/N=C1\SCCN1Cc1ccc(Cl)nc1 [thiacloprid]
IC50 ([1]; confluent cells, read-out: IC50 on confluent HFF): 68.7 ± 9.71 µM
IC50 ([1]; pre-confluent cells, read-out: IC50 on pre-confluent HFF): 64.8 ± 5.79 µM
Collagen fiber deposition in the host-lesion microenvironment (TEM) [2]: can promote
mRNA expression of MMP1, MMP3, MMP9 and MMP13 in the microenvironment ([2]; qPCR): significantly inhibited
mRNA and protein expression levels of collagen I and III in the host-lesion microenvironment ([2]; qPCR, western blot): increased
Protein expression levels of MMP1, MMP3, MMP9 and MMP13 ([2]; western blot): decreased
Expression of IL-2, IL-4 and IL-10 in microcyst fluid [3]: upregulated
Expression of IL-2, IL-4 and IL-10 in serum compared with the untreated group [3]: upregulated
Expression of IgE in serum compared with the untreated group [3]: downregulated
